From patent US20110144331A1, “Cinnoline Compounds for the Treatment of Anxiety, Cognitive and Mood Disorders” (AstraZeneca AB, priority 2005, published 2011)

Tests used:
[1] = molecular target: T1, human α2β3γ2 GABAA receptor (Homo sapiens, UniProt P18507+P47869); experiment: Two-electrode voltage-clamp in Xenopus oocytes, potentiation of GABA EC10 current, GABAA2; assay type: cell-based; conditions: percentage potentiation of GABA EC10 current divided by that of diazepam control
T1 construct: expressed in transfected cells; host or cells: Xenopus laevis oocytes injected with capped cRNA (α:β:γ 1:1:1)
T1 sequence (P47869 29-451): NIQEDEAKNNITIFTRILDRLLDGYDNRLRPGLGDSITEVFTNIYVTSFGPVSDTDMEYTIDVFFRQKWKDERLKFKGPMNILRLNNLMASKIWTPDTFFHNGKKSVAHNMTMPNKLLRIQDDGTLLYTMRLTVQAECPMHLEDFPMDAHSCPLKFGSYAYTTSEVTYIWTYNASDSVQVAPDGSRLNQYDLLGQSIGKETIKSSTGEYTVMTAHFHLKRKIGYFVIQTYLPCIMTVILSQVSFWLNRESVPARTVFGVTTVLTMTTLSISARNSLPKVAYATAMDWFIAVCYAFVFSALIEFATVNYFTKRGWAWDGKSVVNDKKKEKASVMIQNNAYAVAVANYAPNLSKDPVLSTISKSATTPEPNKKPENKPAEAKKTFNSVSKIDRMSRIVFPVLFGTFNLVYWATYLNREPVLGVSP
T1 sequence (P18507 40-475): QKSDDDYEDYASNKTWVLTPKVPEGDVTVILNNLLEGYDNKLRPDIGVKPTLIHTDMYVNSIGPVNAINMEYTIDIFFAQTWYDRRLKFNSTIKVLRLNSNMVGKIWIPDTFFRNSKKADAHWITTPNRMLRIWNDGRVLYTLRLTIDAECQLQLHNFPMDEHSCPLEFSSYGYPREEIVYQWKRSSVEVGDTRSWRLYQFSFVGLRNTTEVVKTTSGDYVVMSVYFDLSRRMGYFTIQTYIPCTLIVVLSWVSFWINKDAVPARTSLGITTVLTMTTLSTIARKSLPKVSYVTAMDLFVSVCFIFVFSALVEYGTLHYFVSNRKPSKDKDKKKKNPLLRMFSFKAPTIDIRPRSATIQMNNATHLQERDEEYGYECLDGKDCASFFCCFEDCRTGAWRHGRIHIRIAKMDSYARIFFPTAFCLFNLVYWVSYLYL
T1 sequence (P28472 26-473 partner): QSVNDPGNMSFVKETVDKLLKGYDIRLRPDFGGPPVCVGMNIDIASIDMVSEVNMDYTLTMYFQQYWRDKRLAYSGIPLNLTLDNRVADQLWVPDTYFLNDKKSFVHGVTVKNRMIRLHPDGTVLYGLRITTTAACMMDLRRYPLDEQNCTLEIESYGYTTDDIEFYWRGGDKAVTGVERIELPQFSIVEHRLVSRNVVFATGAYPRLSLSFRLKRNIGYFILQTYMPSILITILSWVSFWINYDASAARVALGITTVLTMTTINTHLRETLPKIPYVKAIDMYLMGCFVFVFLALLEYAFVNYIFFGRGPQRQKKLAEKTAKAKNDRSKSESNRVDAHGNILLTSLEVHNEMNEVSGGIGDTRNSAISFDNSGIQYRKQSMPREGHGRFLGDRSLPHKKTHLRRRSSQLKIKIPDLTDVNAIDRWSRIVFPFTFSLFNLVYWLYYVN
Description: (§1) GABAA receptors were heterologously expressed in Xenopus oocytes by injecting cRNA corresponding to human α1, α2, α3, α5, β2, β3 and γ2 subunits of the GABAA receptor genes. The specific subunit combinations (subtypes) were as follows: α1β2γ2, α2β3γ2, α3β3γ2, and α5β3γ2. The EC10 of GABA was approximated for each cell. Stability of GABA-mediated (EC10) current was established. Modulatory effect of test compound was determined and compared across subtypes. […] Thus, the assay can characterize modulatory effects and determine subtype selectivity of test compounds on major subtypes of GABAA receptors.
(§2) Surgically removed ovarian lobes were teased out in OR2 solution (82 NaCl, 2.5 KCl, 5 HEPES, 1.5 NaH2PO4, 1 MgCl2, 0.1 EDTA, in mM, pH 7.4). The oocytes were defolliculated by incubation in 25 mL OR2 containing 0.2% collagenase 1A (SIGMA) two times for about 60 minutes on a platform shaker and stored in Leibovitz's L-15 medium. Oocytes were injected the following day in 0.5× Leibovitz's L-15 medium containing […] gentamycin, 10 units/ml penicillin, and […] streptomycin.
(§3) Capped cRNAs from the linearized vectors containing human α1, β2 and γ2 subunits of the GABAA receptor genes were mixed in ratio of 1:1:30. Oocytes were injected with 25-50 nL of mixed RNA with an appx molar ratio for α1, β2, and γ2 as 1:1:10. Oocyte recordings were done 2-10 days after injection. The same methods apply to subtypes derived from α2β2γ2, α3β3γ2, and α5β3γ2, except for 1:1:1 ratio was used for α, β, and γ subunits.
(§4) All measurements were done in a medium containing ND-96 (96 NaCl, 2 KCl, 1.8 CaCl2.2H2O, 1 MgCl2.6H2O, 5 HEPES, in mM, pH 7.5). Two-electrode voltage-clamp recording was carried out using OpusXpress amplifier (Axon Instruments, Foster City, Calif.), which allows simultaneous recording from 8 oocytes. Oocytes were impaled with two electrodes of 1-2 MΩ tip resistance when filled with 3M KCl. Recordings were begun when membrane potential became stable at potentials negative to −50-−60 mV. Membrane potential was held at −60 mV. […] The concentration of GABA corresponded to the EC10 value calculated for each oocyte. The modulator pulses started 30 s before the GABA pulse so as to allow preincubation with the modulator. A set of 3 pulses with just GABA without modulator was given prior to the modulator-containing pulses to define the baseline GABA response. Two oocytes per each experiment were dedicated to observe the effect of diazepam on GABA response to ensure the presence of γ2 subunit in the GABAA pentameric complex, which imparts diazepam sensitivity to the complex.
(§5) Current amplitude (i) was measured from baseline to peak using Clampfit (Axon Inst., Foster City, Calif.). Potentiation was calculated as percent change from the baseline GABA current flux 100×(imod/icontrol)−1) where imod=current mediated by modulator+GABA and icontrol=current mediated by GABA alone. […] Similarly, a value of −50% potentiation means the presence of modulator caused a 50% decrease in the control current. Various other data shown here were fitted and plotted using GraphPad Prism (GraphPad Software, Inc. San Diego, Calif.). The percentage potentiation was converted to relative potentiation by dividing it with percentage potentiation value obtained from the same assay with diazepam as a control.

[2] = molecular target: T2, human α1β2γ2 GABAA receptor (Homo sapiens, UniProt P14867+P18507); experiment: Two-electrode voltage-clamp in Xenopus oocytes, potentiation of GABA EC10 current, GABAA1; assay type: cell-based; conditions: percentage potentiation of GABA EC10 current divided by that of diazepam control
T2 construct: expressed in transfected cells; host or cells: Xenopus laevis oocytes injected with capped cRNA
T2 sequence (P14867 28-456): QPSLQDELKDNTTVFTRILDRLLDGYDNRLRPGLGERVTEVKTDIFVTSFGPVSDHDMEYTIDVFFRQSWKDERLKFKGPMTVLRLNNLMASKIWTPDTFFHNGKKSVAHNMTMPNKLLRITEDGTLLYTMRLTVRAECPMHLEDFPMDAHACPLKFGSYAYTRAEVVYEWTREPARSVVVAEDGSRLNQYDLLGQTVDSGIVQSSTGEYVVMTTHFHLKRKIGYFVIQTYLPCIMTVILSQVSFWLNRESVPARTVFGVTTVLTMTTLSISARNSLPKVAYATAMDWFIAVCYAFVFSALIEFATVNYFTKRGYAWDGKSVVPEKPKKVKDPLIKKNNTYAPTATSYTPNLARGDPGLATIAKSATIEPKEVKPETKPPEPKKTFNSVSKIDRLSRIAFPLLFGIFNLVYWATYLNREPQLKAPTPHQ
T2 sequence (P47870 25-512 partner limits assumed): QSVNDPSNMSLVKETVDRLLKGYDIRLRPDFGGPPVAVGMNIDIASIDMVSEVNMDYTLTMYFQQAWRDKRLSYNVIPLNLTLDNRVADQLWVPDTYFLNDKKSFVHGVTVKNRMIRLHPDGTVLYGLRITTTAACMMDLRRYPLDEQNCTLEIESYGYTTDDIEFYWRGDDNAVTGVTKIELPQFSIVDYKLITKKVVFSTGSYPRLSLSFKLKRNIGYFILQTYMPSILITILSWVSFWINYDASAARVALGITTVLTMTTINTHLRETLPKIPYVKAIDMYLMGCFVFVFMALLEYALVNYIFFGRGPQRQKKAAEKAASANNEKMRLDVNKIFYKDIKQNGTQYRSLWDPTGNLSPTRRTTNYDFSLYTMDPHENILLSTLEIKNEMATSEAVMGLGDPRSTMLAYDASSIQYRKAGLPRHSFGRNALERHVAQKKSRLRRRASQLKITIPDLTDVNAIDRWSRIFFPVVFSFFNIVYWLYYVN
T2 sequence (P18507 40-475): as the sequence (P18507 40-475) above
Description: as §1, §2, §3, §4, §5

Compound | Relative Potentiation for GABAA2 [1] | Relative Potentiation for GABAA1 [2]
CCCNC(=O)c1nnc2c(-c3cc(F)ccc3OC)cccc2c1N | 0.4 | 0.026
CCCNC(=O)c1nnc2c(-c3cnc4ccccc4c3)cccc2c1N | 0.11 | −0.15
CCCNC(=O)c1nnc2c(-c3cc(F)ccc3F)c(F)ccc2c1N | 0.098 | 0.013
CCCNC(=O)c1nnc2c(-c3ccc(OC)c(F)c3)c(F)ccc2c1N | 0.16 | 0.1
CCNC(=O)c1nnc2c(-c3cnc(OC)nc3OC)cccc2c1N | 0.35 | 0.005
CCCNC(=O)c1nnc2c(-c3cccc(F)c3F)cccc2c1N | 0.17 | −0.11
CCCNC(=O)c1nnc2c(-c3cccnc3F)cccc2c1N | 0.17 | −0.083
CCCNC(=O)c1nnc2c(-c3ccc4ccccc4c3)cccc2c1N [drawing 381] | 0.09 | 0.22
CCCNC(=O)c1nnc2c(-c3cnc(OC)c(F)c3)cccc2c1N | 0.14 | −0.012
CCCNC(=O)c1nnc2c(-c3cccc(S(C)(=O)=O)c3)cccc2c1N | 0.26 | 0.34
CCCNC(=O)c1nnc2c(-c3ccc(OC)c(C)c3)cccc2c1N | 0.27 | 0.21
CCCNC(=O)c1nnc2c(-c3cccc(C(=O)O)c3)cccc2c1N | 0.08 | −0.038
CCCNC(=O)c1nnc2c(-c3ccccc3C(F)(F)F)cccc2c1N | 0.063 | 0.12
CCCNC(=O)c1nnc2c(-c3ccc(C)cc3)cccc2c1N | 0.11 | 0.013
CCCNC(=O)c1nnc2c(-c3cccc(C#N)c3)cccc2c1N | 0.31 | 0.088
CCCNC(=O)c1nnc2c(-c3cc(F)ccc3OC)c(F)ccc2c1N | 0.22 | 0.085
CCCNC(=O)c1nnc2c(-c3ccc(Cl)cc3)c(F)ccc2c1N | 0.19 | 0.02
CCCNC(=O)c1nnc2c(-c3ccccc3)c(Cl)ccc2c1N | 0.16 | 0.25
COc1ncccc1-c1cccc2c(N)c(C(=O)NC3CC3)nnc12 | 0.247 | −0.054
CCCNC(=O)c1nnc2c(-c3cnn(C)c3)cccc2c1N | 0.16 | −0.16
CCCNC(=O)c1nnc2c(-c3ccc4[nH]ccc4c3)cccc2c1N | 0.16 | 0.15
CCCNC(=O)c1nnc2c(-c3ccc(OC)cc3F)cccc2c1N | 0.12 | 0
CCCNC(=O)c1nnc2c(-c3cc(Cl)ccc3Cl)cccc2c1N | 0.21 | 0.12
CCNC(=O)c1nnc2c(-c3ccc(OC)cc3OC)cccc2c1N | 0.104 | −0.006
CCCNC(=O)c1nnc2c(-c3cc(Cl)ccc3OC)cccc2c1N | 0.4 | 0.38
CCCNC(=O)c1nnc2c(-c3ccc(F)cc3OC)cccc2c1N | 0.38 | 0.12
CCCNC(=O)c1nnc2c(-c3cccc(OC)c3)cccc2c1N | 0.22 | 0.13

Compound | Relative Potentiation for GABAA2 [1] | Relative Potentiation for GABAA1 [2]
CCCNC(=O)c1nnc2c(-c3cc(OC)ccc3C)cccc2c1N | 0.22 | 0.1
CCCNC(=O)c1nnc2c(-c3cc(C)nn3C)cccc2c1N | 0.18 | 0.23
CCCNC(=O)c1nnc2c(-c3cc(C(F)(F)F)ccc3Cl)cccc2c1N | 0.59 | 0.47
CCCNC(=O)c1nnc2c(-c3cnc(OC)nc3OC)c(Cl)ccc2c1N | 0.29 | 0.19
CCCNC(=O)c1nnc2c(-c3cc(Cl)cc(Cl)c3)cccc2c1N | 0.48 | 0.28
CNC(=O)c1nnc2c(-c3cc(C)ccc3OC)cccc2c1N | 0.43 | 0.19
CCCNC(=O)c1nnc2c(-c3cc(F)ccc3C)c(F)ccc2c1N | 0.12 | 0.032
CCCNC(=O)c1nnc2c(-c3cncc(OC)c3)cccc2c1N | 0.34 | 0.07
CCCNC(=O)c1nnc2c(-c3cc(C(F)(F)F)cc(C(F)(F)F)c3)cccc2c1N | 0.13 | 0.44
COc1ccc(-c2cccc3c(N)c(C(=O)NC4CCC4)nnc23)c(OC)c1 | 0.243 | 0.091
CCCNC(=O)c1nnc2c(-c3ccccn3)cccc2c1N | −0.032 | 0.027
CCCNC(=O)c1nnc2c(-c3cc(OC)ccc3Cl)c(F)ccc2c1N | 0.19 | 0.14
CCCNC(=O)c1nnc2c(-c3ccsc3)cccc2c1N | 0.038 | −0.26
CCCNC(=O)c1nnc2c(-c3cc(OC)ccc3F)cccc2c1N | 0.32 | 0.26
CCCNC(=O)c1nnc2c(-c3ccc(OC)c(OC)c3OC)cccc2c1N | 0.33 | 0.47
CCNC(=O)c1nnc2c(-c3cnccc3OC)cccc2c1N | 0.28 | −0.02
COc1ccncc1-c1cccc2c(N)c(C(=O)NC3CC3)nnc12 | 0.337 | 0.077
CCCNC(=O)c1nnc2c(-c3cnc(OC)c(Cl)c3)cccc2c1N | 0.04 | 0.086
CCCNC(=O)c1nnc2c(-c3ccc(C)nc3)cccc2c1N | 0.14 | −0.16
CCCNC(=O)c1nnc2c(-c3cncc(C(=O)N4CCC4)c3)cccc2c1N | −0.033 | −0.11
CCCNC(=O)c1nnc2c(-c3ccc(F)cc3F)cccc2c1N | 0.12 | −0.088
CCCNC(=O)c1nnc2c(-c3cccc(F)c3OC)cccc2c1N | 0.11 | 0.11
CCCNC(=O)c1nnc2c(-c3cccc(OC(F)(F)F)c3)cccc2c1N | 0.48 | 0.87
CCCNC(=O)c1nnc2c(-c3cnccn3)cccc2c1N | −0.01 | −0.067
CCCNC(=O)c1nnc2c(-c3cc(F)cc(F)c3OC)c(F)ccc2c1N | 0.14 | 0.1
CCCNC(=O)c1nnc2c(-c3ccc(OC)c(F)c3)cccc2c1N | 0.19 | 0.03
CCCNC(=O)c1nnc2c(-c3ccc(OC)cc3C(F)(F)F)cccc2c1N | 0.16 | 0.12
